# Experimental data as given in ChEMBL document CHEMBL5329217, “Hesperidin Methyl Chalcone reduces extracellular Aβ(25-35) peptide aggregation and fibrillation and also protects Neuro 2a cells from Aβ(25-35) induced neuronal dysfunction” (Bioorg Med Chem, 2023).
# Calls of active or inactive are those of the source. No cut-off for these calls is given here.
# What was measured:
# [1] = target: Acetylcholinesterase (Electrophorus electricus) (UniProt O42275); experiment: Inhibition of electric eel AchE using acetylthiocholine iodide as substrate at 20 to 100 ug/ml by Ellman's method relative to control; settings: dose 20-100 µg/ml
# Acetylcholinesterase (Electrophorus electricus), sequence (O42275 24-633 limits assumed): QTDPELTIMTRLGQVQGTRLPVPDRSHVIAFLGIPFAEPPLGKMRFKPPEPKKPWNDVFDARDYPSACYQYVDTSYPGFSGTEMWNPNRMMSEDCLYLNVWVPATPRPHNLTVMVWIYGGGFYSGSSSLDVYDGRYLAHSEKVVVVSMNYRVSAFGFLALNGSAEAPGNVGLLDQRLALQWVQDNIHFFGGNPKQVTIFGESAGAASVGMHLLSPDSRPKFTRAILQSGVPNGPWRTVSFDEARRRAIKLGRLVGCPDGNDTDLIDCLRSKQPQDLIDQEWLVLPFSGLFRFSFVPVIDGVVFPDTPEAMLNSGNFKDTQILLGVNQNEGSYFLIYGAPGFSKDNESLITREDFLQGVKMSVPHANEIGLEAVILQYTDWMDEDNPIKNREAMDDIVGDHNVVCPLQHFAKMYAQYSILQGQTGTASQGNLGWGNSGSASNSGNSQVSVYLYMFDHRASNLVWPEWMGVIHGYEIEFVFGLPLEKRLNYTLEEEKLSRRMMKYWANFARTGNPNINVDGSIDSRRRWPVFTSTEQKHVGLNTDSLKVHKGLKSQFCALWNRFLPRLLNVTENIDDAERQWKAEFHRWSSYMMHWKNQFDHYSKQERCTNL
# [2] = target: Acetylcholinesterase (Electrophorus electricus) (UniProt O42275); experiment: Inhibition of electric eel AchE using acetylthiocholine iodide as substrate at 100 ug/ml by Ellman's method relative to control; settings: dose 100.0 µg/ml
# [3] = Antioxidant activity assessed as free radical scavenging activity at 100 ug/ml by DPPH assay relative to control; type: functional; settings: dose 100.0 µg/ml
# [4] = Toxicity in Artemia salina assessed as mortality rate at 5 ug/ml measured after 24 hrs relative to control; type: organism-based; settings: in vivo, at 5 µg/mL
# [5] = Toxicity in Artemia salina assessed as mortality rate at 25 ug/ml measured after 24 hrs relative to control; type: organism-based; settings: in vivo, at 25 µg/mL
# [6] = Toxicity in Artemia salina assessed as mortality rate at 50 ug/ml measured after 24 hrs relative to control; type: organism-based; settings: in vivo, at 50 µg/mL
# [7] = Toxicity in Artemia salina assessed as mortality rate at 75 ug/ml measured after 24 hrs relative to control; type: organism-based; settings: in vivo, at 75 µg/mL
# [8] = Toxicity in Artemia salina assessed as mortality rate at 100 ug/ml measured after 24 hrs relative to control; type: organism-based; settings: in vivo, at 100 µg/mL
# [9] = Toxicity in Artemia salina assessed as lethal dose; type: organism-based; settings: in vivo
# [10] = tested on: Artemia salina; experiment: Toxicity in Artemia salina assessed as induction of morphological changes by measuring variation in the mandibles at 5 to 100 ug/ml treated for 24 hrs by phase contrast light microscopy; type: organism-based; settings: in vivo, dose 5-100 µg/ml
# [11] = tested on: Artemia salina; experiment: Toxicity in Artemia salina assessed as induction of morphological changes by measuring improper development at 5 to 100 ug/ml treated for 24 hrs by phase contrast light microscopy; type: organism-based; settings: in vivo, dose 5-100 µg/ml
# [12] = tested on: Artemia salina; experiment: Toxicity in Artemia salina assessed as induction of morphological changes by measuring improper antennae swimming setae at 5 to 100 ug/ml treated for 24 hrs by phase contrast light microscopy; type: organism-based; settings: in vivo, dose 5-100 µg/ml
# [13] = tested on: Artemia salina; experiment: Toxicity in Artemia salina assessed as decrease in total length of the shrimp at 5 to 100 ug/ml measured after 24 hrs by phase contrast light microscopy; type: organism-based; settings: in vivo, dose 5-100 µg/ml
# [14] = target: Amyloid-beta precursor protein (Homo sapiens) (UniProt P05067); experiment: Inhibition of amyloid beta (25 to 35) (unknown origin) aggregation assessed as fluorescence intensity at 50 ug/ml incubated for 24 hrs by ThT-based fluorescence analysis (reference value: 22.15 +/-1.41 AU); settings: dose 50.0 µg/ml
# Amyloid-beta precursor protein (Homo sapiens), sequence (P05067 whole entry): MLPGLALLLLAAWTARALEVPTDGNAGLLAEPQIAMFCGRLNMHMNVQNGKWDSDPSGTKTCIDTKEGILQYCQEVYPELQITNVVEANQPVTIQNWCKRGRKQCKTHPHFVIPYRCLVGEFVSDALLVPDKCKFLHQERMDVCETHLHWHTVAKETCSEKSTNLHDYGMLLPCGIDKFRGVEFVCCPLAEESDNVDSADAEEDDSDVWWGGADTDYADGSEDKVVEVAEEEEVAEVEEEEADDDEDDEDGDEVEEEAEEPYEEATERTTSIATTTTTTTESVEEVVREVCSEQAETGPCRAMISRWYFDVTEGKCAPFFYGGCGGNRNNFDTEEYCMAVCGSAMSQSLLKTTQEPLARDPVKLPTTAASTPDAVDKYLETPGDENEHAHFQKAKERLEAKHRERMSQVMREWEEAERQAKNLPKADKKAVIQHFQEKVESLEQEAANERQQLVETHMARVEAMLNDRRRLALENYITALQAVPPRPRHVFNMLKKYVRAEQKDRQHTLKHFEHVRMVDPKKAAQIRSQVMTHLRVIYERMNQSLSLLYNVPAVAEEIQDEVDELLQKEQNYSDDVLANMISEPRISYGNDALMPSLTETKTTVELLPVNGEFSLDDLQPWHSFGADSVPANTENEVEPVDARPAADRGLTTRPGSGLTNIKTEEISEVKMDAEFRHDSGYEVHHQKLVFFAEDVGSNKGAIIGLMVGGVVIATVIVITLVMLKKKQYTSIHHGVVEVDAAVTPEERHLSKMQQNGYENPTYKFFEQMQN
# [15] = target: Amyloid-beta precursor protein (Homo sapiens) (UniProt P05067); experiment: Inhibition of amyloid beta (25 to 35) (unknown origin) aggregation assessed as fluorescence intensity at 50 ug/ml incubated for 48 hrs by ThT-based fluorescence analysis (reference value: 26.85 +/-0.78 AU); settings: dose 50.0 µg/ml
# [16] = target: Amyloid-beta precursor protein (Homo sapiens) (UniProt P05067); experiment: Inhibition of amyloid beta (25 to 35) (unknown origin) aggregation assessed as fluorescence intensity at 50 ug/ml incubated for 96 hrs by ThT-based fluorescence analysis (reference value: 31.63 +/-0.68 AU); settings: dose 50.0 µg/ml
# [17] = target: Amyloid-beta precursor protein (Homo sapiens) (UniProt P05067); experiment: Inhibition of amyloid beta (25 to 35) (unknown origin) aggregation assessed as fluorescence intensity at 50 ug/ml incubated for 9 days by ThT-based fluorescence microscopic analysis (reference value: 36.84 +/-0.94 AU); settings: dose 50.0 µg/ml, time 9.0 day
# [18] = target: Amyloid-beta precursor protein (Homo sapiens) (UniProt P05067); experiment: Disaggregation of amyloid beta (25 to 35) (unknown origin) mature fibrils at 50 ug/ml incubated for 1 to 9 days by ThT-based fluorescence microscopic analysis; settings: dose 50.0 µg/ml, time 1-9 day
# [19] = tested on: N2a; experiment: Cytotoxicity against mouse Neuro2a cells upto 200 ug/ml incubated for 24 hrs by MTT assay; type: toxicity, cell-based; settings: dose < 200 µg/ml
# [20] = Cytotoxicity against mouse Neuro2a cells assessed as cell viability at 100 ug/ml incubated for 24 hrs by MTT assay; type: toxicity, cell-based; settings: Neuro2a (N2a) cells, at 100 µg/mL, read-out: Activity
# [21] = tested on: N2a; experiment: Neuroprotective activity against Amyloid beta (25 to 35)-induced toxicity in mouse Neuro2a cells assessed as reduction in cell viability loss at 25 to 100 ug/ml pretreated for 2 hrs followed by amyloid beta (25 to 35) addition and measured after 24 hrs by MTT assay; type: functional, cell-based; settings: dose 25-100 µg/ml, time 26.0 hrs
# [22] = tested on: N2a; experiment: Inhibition of Amyloid beta (25 to 35)-induced oxidative damage in mouse Neuro2a cells assessed as reduction in ROS production by measuring reduction in fluorescence intensity at 25 to 50 ug/ml pretreated for 2 hrs followed by amyloid beta (25 to 35) addition and measured after 24 hrs by DCFH-DA staining -based spectrofluorimetric assay; type: functional, cell-based; settings: dose 25-50 µg/ml, time 26.0 hrs
# [23] = tested on: N2a; experiment: (§1) Inhibition of Amyloid beta (25 to 35)-induced macromolecular damage in mouse Neuro2a cells assessed as reduction in lipid peroxidation by measuring MDA content at 25 ug/ml pretreated for 2 hrs followed by amyloid beta (25 to 35) addition and measured after 24 hrs per mg protein (reference value: 106.4 +/-1.9 nmol); type: functional; settings: dose 25 µg/ml; time 26 hrs
# [24] = tested on: N2a; experiment: as §1, with “at 50” for “at 25”; type: functional; settings: dose 50 µg/ml; time 26 hrs
# [25] = tested on: N2a; experiment: as §1, with “protein oxidation” for “lipid peroxidation”, “protein carbonyl” for “MDA”, “44.06 +/- 1.02” for “106.4 +/-1.9”; type: functional; settings: dose 25 µg/ml; time 26 hrs
# [26] = tested on: N2a; experiment: Inhibition of Amyloid beta (25 to 35)-induced macromolecular damage in mouse Neuro2a cells assessed as reduction in protein oxidation by measuring protein carbonyl content at 50 ug/ml pretreated for 2 hrs followed by amyloid beta (25 to 35) addition and measured after 24 hrs per mg protein (reference value: 44.06 +/- 1.02 […]); type: functional; settings: dose 50 µg/ml; time 26 hrs
# [27] = tested on: N2a; experiment: Inhibition of Amyloid beta (25 to 35)-induced mitochondrial membrane potential loss in mouse Neuro2a cells at 25 to 50 ug/ml pretreated for 2 hrs followed by amyloid beta (25 to 35) addition and measured after 24 hrs by rhodamine 123 staining based fluorescent spectrophotometry; type: functional, cell-based; settings: dose 25-50 µg/ml, time 26.0 hrs
# [28] = target: T1, Acetylcholinesterase (Mus musculus) (UniProt P21836); experiment: Inhibition of Amyloid beta (25 to 35)-induced AChE activity in mouse Neuro2a cells assessed as AChE activity at 25 ug/ml pretreated for 2 hrs followed by amyloid beta (25 to 35) addition and measured after 24 hrs per mg protein (reference value: 0.0012 +/-4.18 U); type: cell-based; settings: dose 25.0 µg/ml, time 26.0 hrs
# T1 sequence (whole entry): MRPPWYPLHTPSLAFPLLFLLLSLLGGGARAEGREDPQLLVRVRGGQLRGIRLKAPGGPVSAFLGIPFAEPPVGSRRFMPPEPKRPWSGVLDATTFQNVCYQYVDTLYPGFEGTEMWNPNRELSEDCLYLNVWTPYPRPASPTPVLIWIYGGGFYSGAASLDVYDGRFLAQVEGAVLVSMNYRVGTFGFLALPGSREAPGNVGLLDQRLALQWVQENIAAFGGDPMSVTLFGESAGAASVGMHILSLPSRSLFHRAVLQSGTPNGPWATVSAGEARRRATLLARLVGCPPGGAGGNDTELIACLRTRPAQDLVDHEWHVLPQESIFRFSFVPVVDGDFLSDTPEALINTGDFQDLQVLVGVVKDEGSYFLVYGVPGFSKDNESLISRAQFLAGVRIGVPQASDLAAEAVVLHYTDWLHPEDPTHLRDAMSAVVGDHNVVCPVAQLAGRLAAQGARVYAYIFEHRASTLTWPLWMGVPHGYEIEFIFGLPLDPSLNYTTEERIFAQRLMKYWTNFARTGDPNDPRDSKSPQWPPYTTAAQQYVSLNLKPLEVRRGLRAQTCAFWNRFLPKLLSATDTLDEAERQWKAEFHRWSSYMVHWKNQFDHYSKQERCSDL
# [29] = target: T1, Acetylcholinesterase (Mus musculus); experiment: Inhibition of Amyloid beta (25 to 35)-induced AChE activity in mouse Neuro2a cells assessed as AChE activity at 50 ug/ml pretreated for 2 hrs followed by amyloid beta (25 to 35) addition and measured after 24 hrs per mg protein (reference value: 0.0012 +/-4.18 U); type: cell-based; settings: dose 50.0 µg/ml, time 26.0 hrs
# [30] = target: Cholinesterase (Mus musculus) (UniProt Q03311); experiment: Inhibition of Amyloid beta (25 to 35)-induced BuChE activity in mouse Neuro2a cells assessed as BuChE activity at 25 ug/ml pretreated for 2 hrs followed by amyloid beta (25 to 35) addition and measured after 24 hrs per mg protein (reference value: 0.0007 +/-3.64 U); type: cell-based; settings: dose 25.0 µg/ml, time 26.0 hrs
# Cholinesterase (Mus musculus), sequence (Q03311 whole entry): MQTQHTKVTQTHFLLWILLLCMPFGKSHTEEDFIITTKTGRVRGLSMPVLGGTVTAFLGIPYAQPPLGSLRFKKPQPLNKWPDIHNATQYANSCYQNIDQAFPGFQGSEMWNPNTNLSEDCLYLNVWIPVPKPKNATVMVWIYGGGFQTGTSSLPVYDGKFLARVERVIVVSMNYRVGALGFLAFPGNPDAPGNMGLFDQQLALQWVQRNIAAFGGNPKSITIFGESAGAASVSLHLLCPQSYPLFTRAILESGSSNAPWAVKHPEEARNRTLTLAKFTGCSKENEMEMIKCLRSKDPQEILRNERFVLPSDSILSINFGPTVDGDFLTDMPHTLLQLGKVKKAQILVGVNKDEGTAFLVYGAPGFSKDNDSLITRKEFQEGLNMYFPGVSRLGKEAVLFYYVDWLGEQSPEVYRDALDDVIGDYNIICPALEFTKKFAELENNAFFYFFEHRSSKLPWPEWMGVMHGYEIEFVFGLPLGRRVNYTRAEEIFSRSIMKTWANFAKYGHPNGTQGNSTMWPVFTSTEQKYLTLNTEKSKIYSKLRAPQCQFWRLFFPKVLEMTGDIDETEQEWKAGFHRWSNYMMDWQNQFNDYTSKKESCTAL
# [31] = target: Cholinesterase (Mus musculus) (UniProt Q03311); experiment: Inhibition of Amyloid beta (25 to 35)-induced BuChE activity in mouse Neuro2a cells assessed as BuChE activity at 50 ug/ml pretreated for 2 hrs followed by amyloid beta (25 to 35) addition and measured after 24 hrs per mg protein (reference value: 0.0007 +/-3.64 U); type: cell-based; settings: dose 50.0 µg/ml, time 26.0 hrs
# [32] = tested on: N2a; experiment: (§2) Neuroprotective activity against Amyloid beta (25 to 35)-induced toxicity in mouse Neuro2a cells assessed as non-apoptotic viable cells at 25 ug/ml pretreated for 2 hrs followed by amyloid beta (25 to 35) addition and measured after 24 hrs by AO/EtBr dual staining based fluorescence microscopy (reference value: 53.4 +/-3.88%); type: functional; settings: dose 25 µg/ml; time 26 hrs
# [33] = tested on: N2a; experiment: as §2, with “at 50” for “at 25”; type: functional; settings: dose 50 µg/ml; time 26 hrs
# [34] = tested on: N2a; experiment: (§3) Inhibition of Amyloid beta (25 to 35)-induced apoptosis in mouse Neuro2a cells assessed as reduction in caspase-3 activity by measuring PNA level at 25 ug/ml pretreated for 2 hrs followed by amyloid beta (25 to 35) addition and measured after 24 hrs per mg protein (reference value: 0.12 +/-0.004 mM/min); type: functional; settings: dose 25 µg/ml; time 26 hrs
# [35] = tested on: N2a; experiment: as §3, with “at 50” for “at 25”; type: functional; settings: dose 50 µg/ml; time 26 hrs
# [36] = tested on: N2a; experiment: Inhibition of Amyloid beta (25 to 35)-induced apoptosis in mouse Neuro2a cells assessed as increase in BCl2 expression at 50 ug/ml pretreated for 2 hrs followed by amyloid beta (25 to 35) addition and measured after 24 hrs by Western blot analysis; type: functional, cell-based; settings: dose 50.0 µg/ml, time 26.0 hrs
# [37] = tested on: N2a; experiment: Inhibition of Amyloid beta (25 to 35)-induced apoptosis in mouse Neuro2a cells assessed as decrease in Bax expression at 50 ug/ml pretreated for 2 hrs followed by amyloid beta (25 to 35) addition and measured after 24 hrs by Western blot analysis; type: functional, cell-based; settings: dose 50.0 µg/ml, time 26.0 hrs
# [38] = tested on: N2a; experiment: Inhibition of Amyloid beta (25 to 35)-induced apoptosis in mouse Neuro2a cells assessed as Bax/Bcl2 ratio at 50 ug/ml pretreated for 2 hrs followed by amyloid beta (25 to 35) addition and measured after 24 hrs by Western blot analysis (reference value: 1.09 +/- 0.018); type: functional; settings: dose 50 µg/ml; time 26 hrs
structure (smiles),measurement,setting,value
COc1ccc(/C=C/C(=O)c2c(O)cc(O[C@@H]3O[C@H](CO[C@@H]4O[C@@H](C)[C@H](O)[C@@H](O)[C@H]4O)[C@@H](O)[C@H](O)[C@H]3O)cc2OC)cc1O,inhibition,[1],> 80%
same,inhibition,[2],93%
same,inhibition,[3],68.4%
same,"mortality at 24 h, 5 ug/ml",[4],0%
same,"mortality at 24 h, 25 ug/ml",[5],0%
same,"mortality at 24 h, 50 ug/ml",[6],3.33%
same,"mortality at 24 h, 75 ug/ml",[7],36.6%
same,"mortality at 24 h, 100 ug/ml",[8],53.3%
same,LC50,[9],100 µg/mL
same,Activity,[10],Toxic
same,Activity,[11],Toxic
same,Activity,[12],Toxic
same,Activity,[13],Toxic
same,Flu intensity,[14],19.8 a.u.
same,Flu intensity,[15],6.45 a.u.
same,Flu intensity,[16],10 a.u.
same,Flu intensity,[17],11.8 a.u.
same,Activity,[18],Active
same,Activity,[19],Non-Toxic
same,"viability at 24 h, 100 ug/ml",[20],99.6%
same,Activity,[21],Active
same,inhibition,[22],Active
same,Activity,[23],77.84 nmol
same,Activity,[24],64.63 nmol
same,Activity,[25],33.9 nmol/mg
same,Activity,[26],27.9 nmol/mg
same,inhibition,[27],Active
same,Activity,[28],0 U
same,Activity,[29],0 U
same,Activity,[30],0 U
same,Activity,[31],0 U
same,Activity,[32],70.33%
same,Activity,[33],81.66%
same,Activity,[34],0.07 mM/min
same,Activity,[35],0.03 mM/min
same,inhibition,[36],Active
same,inhibition,[37],Active
same,Ratio,[38],0.51
